What was measured:
[1] = AUC (0 to 24 hrs) in rat at 1 mg/kg, iv; assay type: ADME, organism-based; design: time < 24 hr, route intravenous, dose 1 mg/kg; settings: in vivo
[2] = AUC (0 to 24 hrs) in rat at 3 mg/kg, po; assay type: ADME, organism-based; design: time < 24 hr, route oral, dose 3 mg/kg; settings: in vivo
[3] = AUC (0 to 24 hrs) in rat at 10 mg/kg, po; assay type: ADME, organism-based; design: time < 24 hr, route oral, dose 10 mg/kg; settings: in vivo
[4] = Total clearance in rat at 1 mg/kg, iv; assay type: ADME, organism-based; settings: in vivo
[5] = Half life in rat at 1 mg/kg, iv; assay type: ADME, organism-based; settings: in vivo
[6] = Tmax in rat at 3 mg/kg, po; assay type: ADME, organism-based; settings: in vivo
[7] = Half life in rat liver microsomes measured up to 60 mins in presence of NADPH by LC-MS/MS analysis; assay type: ADME, Microsome
[8] = Tmax in rat at 10 mg/kg, po; assay type: ADME, organism-based; settings: in vivo
[9] = Oral bioavailability in rat at 10 mg/kg; assay type: ADME, organism-based; settings: in vivo
[10] = Cmax in rat at 3 mg/kg, po; assay type: ADME, organism-based; design: route oral, dose 3 mg/kg; settings: in vivo
[11] = Half life in rat at 10 mg/kg, po; assay type: ADME, organism-based; settings: in vivo
[12] = Half life in rat at 3 mg/kg, po; assay type: ADME, organism-based; settings: in vivo
[13] = Volume of distribution in rat at 1 mg/kg, iv; assay type: ADME, organism-based; settings: in vivo, read-out: Vdss
[14] = Permeability of compound by PAMPA assay; assay type: ADME; settings: read-out: permeability
[15] = Oral bioavailability in rat at 3 mg/kg; assay type: ADME, organism-based; settings: in vivo

AUC ([1]; 24 h) [ng·h/mL]	AUC(0-t) at 24 h [2] [ng·h/mL]	AUC [3] [ng·h/mL]	clearance [4] [mL/min/kg]	half-life [5] [h]	Tmax [6] [h]	half-life [7] [h]	Tmax [8] [h]	F [9] [%]	Cmax [10] [ng/mL]	half-life [11] [h]	half-life [12] [h]	Vd [13] [L/kg]	Papp [14] [×10⁻⁶ cm/s]	AUC(0-t) at 24 h [1] [ng·h/mL]	bioavailability [15] [%]	SMILES
686	291	291	25.1	5.8	0.5	> 3.33	0.5	42	56.6	6.5	6.5	8.23	0.71			COc1cc(OC)cc(-c2cncc(-c3nc4cc(C)ccc4[nH]3)c2N2CCC(N)CC2)c1
	271		60.7	6.1	2.3	> 3.33			32.1		5.6	23.2	41	264	35.5	Cc1cc(C(=O)Nc2cncc(-c3cc(Cl)cc(Cl)c3)c2N2CCC(N)CC2)n(C)n1

Reference: ChEMBL document CHEMBL4840347, “Design, synthesis, and biological evaluation of novel somatostatin receptor subtype-2 agonists: Optimization for potency and risk mitigation of hERG and phospholipidosis” (Bioorg Med Chem, 2021)
